In patent publication US5674894A, “Amidine derivatives useful as platelet aggregation inhibitors and vasodilators” (G.D. Searle & Co., priority 1995, dated 1997):

Tests used:
[1] = system: ADP-Induced Platelet Aggregation in Human PRP; assay: In-Vitro Human Platelet Aggregation in PRP (ADP-induced); type: cell-based; conditions: 1 minute preincubation at 37° C., tested in duplicate, read-out: IC50, inhibition of ADP-induced platelet aggregation in human PRP
Description: (§1) The compounds of the above invention were tested in the in vitro human platelet aggregation assay in platelet rich plasma (PRP) and in the competitive solid phase binding assay against purified human fibrinogen and vitronectin receptors.
In-Vitro Human Platelet Aggregation in PRP:
Healthy male or female donors who have not taken any antiplatelet drugs for at least two weeks were fasted for 8 hours prior to drawing blood; then 30 mL whole blood was collected using a butterfly needle and 30 cc plastic syringe with 3 mL of 0.129M buffered sodium citrate (3.8%). The syringe was rotated carefully as blood was drawn to mix the citrate. Platelet-richplasma (PRP) was prepared by centrifugation at 250× g for 12 minutes at room temperature, allowing the centrifuge to coast to a stop without braking. The PRP was removed from the blood with a plastic pipette and placed in a plastic capped, 50 mL Corning conical sterile centrifuge tube which was held at room temperature. Platelet-poor plasma (PPP) was prepared by centrifuging the remaining blood at 2000× g for 15 minutes at room temperature allowing the centrifuge to coast to a stop without braking. The PRP was adjusted with PPP to a count of 2-3×10^8 platelets per mL. 450 μL of the PRP preparation and 50 μL of the compound to be tested or saline were preincubated for 1 minute at 37° C. in a Payton aggregometer (Payton Scientific, Inc., Buffalo, N.Y.). 50 μL of adenosine 5'-diphosphate (ADP) ([…]) was added to the cuvettes and the aggregation was monitored for 1 minute. All compounds are tested in duplicate. Results are calculated as follows: Percent of control=[(maximal OD minus initial OD of compound) divided by (maximal OD minus initial OD of control saline)]×100. The % inhibition=100-(percent of control). The compounds tested and their activity results at median inhibitory concentration (IC50) were as recorded in Table 1.

[2] = biological target: purified human fibrinogen receptor (IIb^β 3) (Homo sapiens, UniProt P05106+P08514); assay: Solid phase receptor assay, competitive binding to purified human fibrinogen receptor; conditions: biotinylated ligand 1 nM final, two hours, room temperature
Description: as §1
(§2) Solid Phase Receptor Assays
(§3) These assays were essentially the same as previously reported. The purified human vitronectin receptor(αv β3) or purified human fibrinogen receptor(IIb^β 3) were diluted from stock solutions to 1.0 μg/mL in Tris-buffered saline containing 1.0 mM Ca^++, Mg^++, and Mn^++, pH 7.4 (TBS^+++). The diluted receptor was immediately transferred to Linbro microtiter plates at 100 μL/well (100 ng receptor/well). The plates were sealed and incubated overnight at 4° C. to allow the receptor to bind to the wells. All remaining steps were at room temperature. The assay plates are emptied and 200 μL of 1% radioimmunoassay grade bovine serum albumin in TBS^+++ (TBS^+++ /BSA) were added to block exposed plastic surfaces. Following a 2 hour incubation, the assay plates were washed with TBS^+++ using a 96 well plate washer. Logarithmic serial dilution of the test compound and controls were made starting at a stock concentration of 2 mM and using 2 nM biotinylated vitronectin in TBS^+++ /BSA as the diluent. This premixing of labeled ligand with test (or control) ligand, and subsequent transfer of 50 μL aliquots to the assay plate was carried out with a CETUS Propette robot; the final concentration of the labeled ligand was 1 nM and the highest concentration of test compound was 1.0×10^-4M. The competition occurred for two hours after which all wells were washed with a plate washer as before. Affinity purified horseradish peroxidase labeled goat anti-biotin antibody was diluted 1:3000 in TBS^+++ /BSA and 125 μL were added to each well. After 30 minutes, the plates were washed and incubated with o-phenylendiamine/H2 O2 substrate in 100 mM/L Citrate buffer, pH 5.0. The plate was read with a microtiter plate reader at a wavelength of 450 nm and when the maximum-binding control wells reached an absorbance of about 1.0, the final A450 were recorded for analysis. The data were analyzed using a macro written for use with the EXCEL™ spreadsheet program. The mean, standard deviation, and % coefficient variation were determined for duplicate concentrations. The mean A450 values were normalized to the mean of four maximum-binding controls (no competitor added). The normalized values were subjected to a four parameter curve fit algorithm, plotted on a semi-log scale, and the computed IC50 and corresponding correlation coefficient was reported. GRGDSP, a peptide fragment of fibrinogen, was included on each plate as a positive control.

[3] = biological target: purified human vitronectin receptor (αv β3) (Homo sapiens, UniProt P05106+P06756); assay: Solid phase receptor assay, competitive binding to purified human vitronectin receptor; conditions: biotinylated vitronectin 1 nM final, two hours, highest concentration 1.0×10^-4M, read-out: IC50 Vitronetin receptor
Description: as §1, §2, §3

SMILES: N=C(N)c1ccc(CCCCC(=O)NC(CC(=O)O)C(=O)OC2COC3C(O)COC23)cc1 (stereo not drawn) [Example 5]
- IC50 [1]: 2000 nM
- IC50 [2]: 1.28 nM
- IC50 [3]: > 100 µM

SMILES: N=C(N)c1ccc(CCCCC(=O)NC(CC(=O)O)C(=O)O[C@H]2CO[C@H]3[C@@H]2OC[C@H]3O[N+](=O)[O-])cc1 (stereo partly drawn) [Example 3]
- IC50 [1]: 2000 nM
- IC50 [2]: 3.11 nM
- IC50 [3]: > 100 µM

SMILES: N=C(N)c1ccc(NC(=O)CCC(=O)NC(CC(=O)O)C(=O)O[C@H]2CO[C@H]3[C@@H]2OC[C@H]3O[N+](=O)[O-])cc1 (stereo partly drawn) [Example 6]
- IC50 [1]: 400 nM
- IC50 [2]: 0.25 nM
- IC50 [3]: > 100 µM

SMILES: N=C(N)c1ccc(NC(=O)CCC(=O)NC(CC(=O)O)C(=O)O[C@H]2CO[C@H]3[C@@H]2OC[C@H]3O)cc1 (stereo partly drawn) [Example 8]
- IC50 [1]: 300 nM
- IC50 [2]: 0.71 nM
- IC50 [3]: > 100 µM
